Data taken from ChEMBL document CHEMBL1201862, “PubChem BioAssay data set” (2004).
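All cell lines were grown in 96-well plates and treated with compound for 48 hours. GI50: concentration for 50% inhibition of growth.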 Calls of active or inactive are those of the source. Rule as the data show it: active = GI50 up to about 1.1 µM and inactive = higher.

Experiments:
Assay in all cases: inhibition of tumour cell growth, NCI panel, 48 h
BT-549 = system: BT-549
A498 = system: A498
HL-60 = system: HL-60
UACC-257 = system: UACC-257
OVCAR-5 = system: OVCAR-5
KM12 = system: KM12
MDA-N = system: MDA-N
DU-145 = system: DU-145
NCI-H226 = system: NCI-H226
SK-OV-3 = system: SK-OV-3
SK-MEL-5 = system: SK-MEL-5
UACC-62 = system: UACC-62
SF-268 = system: SF-268
TK-10 = system: TK-10
786-0 = system: 786-0
SNB-19 = system: SNB-19
CAKI-1 = system: CAKI-1
RXF 393 = system: RXF 393
MOLT-4 = system: MOLT-4
HT-29 = system: HT-29

| Compound | GI50 (BT-549) | GI50 (A498) | GI50 (HL-60) | GI50 (UACC-257) | GI50 (OVCAR-5) | GI50 (KM12) | GI50 (MDA-N) | GI50 (DU-145) | GI50 (NCI-H226) | GI50 (SK-OV-3) | GI50 (SK-MEL-5) | GI50 (UACC-62) | GI50 (SF-268) | GI50 (TK-10) | GI50 (786-0) | GI50 (SNB-19) | GI50 (CAKI-1) | GI50 (RXF 393) | GI50 (MOLT-4) | GI50 (HT-29) |
| --- | --- | --- | --- | --- | --- | --- | --- | --- | --- | --- | --- | --- | --- | --- | --- | --- | --- | --- | --- | --- |
| N#C/C(=C\c1ccc([N+](=O)[O-])o1)c1n[nH]c(Cc2ccccc2)n1 | 2.53 µM (inactive) | 6.32 µM (inactive) | 3.06 µM (inactive) | 1.91 µM (inactive) | 1.64 µM (inactive) | 2.19 µM (inactive) | 1 µM (active) | 1.57 µM (inactive) | 1.65 µM (inactive) | 4.52 µM (inactive) | 1.05 µM (active) | 1.52 µM (inactive) | 0.641 µM (active) | 2 µM (inactive) | 0.847 µM (active) | 4.93 µM (inactive) | 1.95 µM (inactive) | 0.423 µM (active) | 0.406 µM (active) | 1.05 µM (active) |
| Cn1c(=O)c2c(ncn2CN2CCN(Cn3cnc4c3c(=O)n(C)c(=O)n4C)CC2)n(C)c1=O | 62.2 µM (inactive) | > 100 µM (inactive) | 23 µM (inactive) | 47.1 µM (inactive) | > 100 µM (inactive) | 92.5 µM (inactive) | 50.2 µM (inactive) | 45.7 µM (inactive) | > 100 µM (inactive) | > 100 µM (inactive) | > 100 µM (inactive) | 45.7 µM (inactive) | 50.9 µM (inactive) | 21.5 µM (inactive) | 29 µM (inactive) | > 100 µM (inactive) | 77.3 µM (inactive) | 20.2 µM (inactive) | 17 µM (inactive) | 26.2 µM (inactive) |
| O=C(Nc1ccc(Cl)cc1)c1cc(S(=O)(=O)Nc2nc3cccnc3[nH]2)c(SSc2cc(Cl)c(C(=O)Nc3ccc(Cl)cc3)cc2S(=O)(=O)Nc2nc3cccnc3[nH]2)cc1Cl | > 100 µM (inactive) | > 100 µM (inactive) | > 100 µM (inactive) | > 100 µM (inactive) | > 100 µM (inactive) | > 100 µM (inactive) | > 100 µM (inactive) | > 100 µM (inactive) | > 100 µM (inactive) | > 100 µM (inactive) | > 100 µM (inactive) | > 100 µM (inactive) | > 100 µM (inactive) | > 100 µM (inactive) | > 100 µM (inactive) | > 100 µM (inactive) | > 100 µM (inactive) | 28.6 µM (inactive) | > 100 µM (inactive) | > 100 µM (inactive) |
| CC(=O)O[C@H]1CC[C@@]2(C)C(=CC[C@H]3[C@@H]4C/C(=C\c5ccncc5)[C@H](OC(C)=O)[C@@]4(C)CC[C@@H]32)C1 | 3.28 µM (inactive) | 12.9 µM (inactive) | 4.01 µM (inactive) | 16.9 µM (inactive) | 16.9 µM (inactive) | 4.57 µM (inactive) | 18.3 µM (inactive) | 15.4 µM (inactive) | 11.8 µM (inactive) | 21.6 µM (inactive) | 5.47 µM (inactive) | 13.2 µM (inactive) | 10.9 µM (inactive) | 22.5 µM (inactive) | 11.3 µM (inactive) | 8.61 µM (inactive) | 11.2 µM (inactive) | 2.73 µM (inactive) | 3.04 µM (inactive) | 6.41 µM (inactive) |
| CC1(C)CCC2(C(=O)OC3OC(CO)C(O)C(O)C3O)CCC3(CO)C(=CCC4C5(C)CC(O)C(O)C(C)(C(=O)OC6OC(CO)C(O)C(O)C6O)C5CCC43C)C2C1 (stereo not given) | > 100 µM (inactive) | > 100 µM (inactive) | 39 µM (inactive) | > 100 µM (inactive) | > 100 µM (inactive) | > 100 µM (inactive) | > 100 µM (inactive) | > 100 µM (inactive) | > 100 µM (inactive) | > 100 µM (inactive) | > 100 µM (inactive) | > 100 µM (inactive) | > 100 µM (inactive) | > 100 µM (inactive) | > 100 µM (inactive) | > 100 µM (inactive) | > 100 µM (inactive) | > 100 µM (inactive) | > 100 µM (inactive) | > 100 µM (inactive) |
| COC(=O)c1nc2c3c(cccc3c1C(=O)OC)Nc1ccccc1-2 | 43.2 µM (inactive) | 36.6 µM (inactive) | 53 µM (inactive) | 61.4 µM (inactive) | > 100 µM (inactive) | 28.2 µM (inactive) | 46.2 µM (inactive) | 41.6 µM (inactive) | 65.3 µM (inactive) | 24 µM (inactive) | 15.4 µM (inactive) | 10.7 µM (inactive) | 38.5 µM (inactive) | 40.9 µM (inactive) | 27.5 µM (inactive) | 51.3 µM (inactive) | 50.2 µM (inactive) | 35.7 µM (inactive) | 43.8 µM (inactive) | 34.8 µM (inactive) |
| C[C@@H]1CC[C@@]2(OC1)O[C@H]1C[C@H]3[C@@H]4CC[C@H]5C[C@@H](OC6OC(CO)C(OC7OC(CO)C(O)C(OC8OCC(O)C(O)C8O)C7OC7OC(CO)C(O)C(O)C7O)C(O)C6O)[C@H](O)C[C@]5(C)[C@H]4CC[C@]3(C)[C@H]1[C@@H]2C (stereo not given in full) | 2.94 µM (inactive) | 7.89 µM (inactive) | 1.49 µM (inactive) | 18.1 µM (inactive) | 4.76 µM (inactive) | 8 µM (inactive) | 10.8 µM (inactive) | 2.42 µM (inactive) | 6.47 µM (inactive) | 10.8 µM (inactive) | 9.84 µM (inactive) | 20 µM (inactive) | 7.71 µM (inactive) | 4.36 µM (inactive) | > 10 µM (inactive) | 10.1 µM (inactive) | 2.21 µM (inactive) | 9.98 µM (inactive) | 11.3 µM (inactive) | 1.75 µM (inactive) |
| Clc1ccc2c(NCCCCN3OC3c3ccccc3)ccnc2c1 (stereo not given) | 13.4 µM (inactive) | 8.36 µM (inactive) | < 0.01 µM (active) | 18.1 µM (inactive) | 14.4 µM (inactive) | 7.5 µM (inactive) | 5.42 µM (inactive) | 10.4 µM (inactive) | 18.4 µM (inactive) | 19.6 µM (inactive) | 4.79 µM (inactive) | 14.1 µM (inactive) | 8.07 µM (inactive) | 10.3 µM (inactive) | 2.47 µM (inactive) | 6.89 µM (inactive) | 8.77 µM (inactive) | 5.55 µM (inactive) | 2.15 µM (inactive) | 3.16 µM (inactive) |
| O=C(CSc1nc2ccc(I)cc2c(=O)n1Cc1ccccc1)NNC(=S)Nc1ccccc1 | 80.5 µM (inactive) | 3.55 µM (inactive) | 25.5 µM (inactive) | 14.7 µM (inactive) | > 100 µM (inactive) | 34.4 µM (inactive) | 30.3 µM (inactive) | > 100 µM (inactive) | 6.53 µM (inactive) | > 100 µM (inactive) | 13.8 µM (inactive) | 33.4 µM (inactive) | 5.27 µM (inactive) | 61.8 µM (inactive) | 7.4 µM (inactive) | 41.3 µM (inactive) | 3.33 µM (inactive) | > 100 µM (inactive) | 6.08 µM (inactive) | 41.5 µM (inactive) |
| CC1(C)N=C(N)N=C(N)N1c1cccc(CSc2ccccc2)c1 | 15.9 µM (inactive) | > 100 µM (inactive) | < 0.01 µM (active) | 3.85 µM (inactive) | 52.1 µM (inactive) | 0.718 µM (active) | 0.037 µM (active) | 0.592 µM (active) | 0.916 µM (active) | 95.3 µM (inactive) | 0.212 µM (active) | 0.192 µM (active) | 0.0363 µM (active) | 78.7 µM (inactive) | 0.0929 µM (active) | 0.218 µM (active) | 23.6 µM (inactive) | 0.169 µM (active) | 0.141 µM (active) | 0.0791 µM (active) |
| OC1(c2ccccc2)CSC2=Nc3ccccc3C3CCN1N23 (stereo not given) | 23.1 µM (inactive) | 14.6 µM (inactive) | 30.1 µM (inactive) | 23.4 µM (inactive) | 11.1 µM (inactive) | 16.7 µM (inactive) | 14.1 µM (inactive) | 15.6 µM (inactive) | 38.1 µM (inactive) | 32.7 µM (inactive) | 17.7 µM (inactive) | 18.7 µM (inactive) | 21.7 µM (inactive) | 22.3 µM (inactive) | 18.7 µM (inactive) | 15.5 µM (inactive) | 21.1 µM (inactive) | 20.9 µM (inactive) | 30.5 µM (inactive) | 18.1 µM (inactive) |
| CCn1cc(C(=O)O)c(=O)c2cc(F)c(N3CCN(CN4C(=O)/C(=N\NC(=O)c5ccncc5)c5cc(Cl)ccc54)CC3)cc21 | 91.6 µM (inactive) | > 100 µM (inactive) | 15.8 µM (inactive) | 37.6 µM (inactive) | > 100 µM (inactive) | 40.3 µM (inactive) | 50.6 µM (inactive) | 24 µM (inactive) | > 100 µM (inactive) | 24.9 µM (inactive) | 42.2 µM (inactive) | 58.7 µM (inactive) | 61.4 µM (inactive) | 24.7 µM (inactive) | 38.6 µM (inactive) | 44.3 µM (inactive) | 23.7 µM (inactive) | 19.6 µM (inactive) | 0.048 µM (active) | 32.7 µM (inactive) |
| CCOC(=O)C1=CN(C(=O)c2ccccc2)CCC1Cc1ccccc1 (stereo not given) | 25.8 µM (inactive) | 7.87 µM (inactive) | 9.04 µM (inactive) | 15.8 µM (inactive) | 44.6 µM (inactive) | 26.1 µM (inactive) | 19.5 µM (inactive) | 40.9 µM (inactive) | 43.6 µM (inactive) | 31 µM (inactive) | 15 µM (inactive) | 13.7 µM (inactive) | 32.9 µM (inactive) | 22.9 µM (inactive) | 28.6 µM (inactive) | 34.4 µM (inactive) | 24.4 µM (inactive) | 18.1 µM (inactive) | 13.5 µM (inactive) | 17 µM (inactive) |
